Literature values as cited in US20050090518A1 (Nastech Pharmaceutical Company Inc., priority 2003, published 2005).

Settings: intranasal administration

In the case of CN1CCc2cccc3c2[C@H]1Cc1ccc(O)c(O)c1-3 [Apomorphine], the “abolition of "off state" events” value is given as 95%, the duration of efficacy is given as “less than one” and the onset of action is given as 10 min.
